From ChEMBL document CHEMBL1150292, “4-benzyl-1H-imidazoles with oxazoline termini as histamine H3 receptor agonists” (J Med Chem, 2008)

Experiments:
Histamine H3 receptor [1] = biological target: T1, Histamine H3 receptor (Homo sapiens, UniProt Q9Y5N1); experiment: Displacement of [3H]N-alpha-methylhistamine from human histamine H3 receptor expressed in CHO cells; assay type: cell-based
[2] = biological target: Histamine H3 receptor (Cavia porcellus) (UniProt Q9JI35); settings: Ileum
Histamine H3 receptor [3] = biological target: T1, Histamine H3 receptor; experiment: Agonist activity at human histamine H3 receptor assessed as beta galactosidase activity; assay type: functional
Histamine H3 receptor [4] = biological target: T1, Histamine H3 receptor; experiment: Agonist activity at human histamine H3 receptor assessed as effect on [35S]GTPgammaS binding; assay type: functional
[5] = Inhibition of […] in human liver microsomes assessed as midazolam 1'-hydroxylase activity; assay type: ADME, Microsome
[6] = biological target: Histamine H2 receptor (Homo sapiens) (UniProt P25021); experiment: Inhibition of histamine H2 receptor at 10 uM
Sequence of Histamine H2 receptor (Homo sapiens) (P25021 whole entry): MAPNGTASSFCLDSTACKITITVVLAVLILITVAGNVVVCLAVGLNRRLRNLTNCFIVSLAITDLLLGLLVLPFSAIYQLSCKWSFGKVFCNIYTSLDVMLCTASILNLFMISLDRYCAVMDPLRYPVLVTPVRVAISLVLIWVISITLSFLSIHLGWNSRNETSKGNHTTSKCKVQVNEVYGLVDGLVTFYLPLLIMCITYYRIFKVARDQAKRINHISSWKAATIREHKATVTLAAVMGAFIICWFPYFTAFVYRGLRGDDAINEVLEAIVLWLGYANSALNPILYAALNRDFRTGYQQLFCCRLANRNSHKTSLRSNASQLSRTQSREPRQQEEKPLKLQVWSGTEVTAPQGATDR

Histamine H4 receptor [7] = biological target: T2, Histamine H4 receptor (Homo sapiens, UniProt Q9H3N8); experiment: Displacement of [3H]histamine from human histamine H4 receptor expressed in CHO cells; assay type: cell-based
T2 sequence (Q9H3N8 whole entry): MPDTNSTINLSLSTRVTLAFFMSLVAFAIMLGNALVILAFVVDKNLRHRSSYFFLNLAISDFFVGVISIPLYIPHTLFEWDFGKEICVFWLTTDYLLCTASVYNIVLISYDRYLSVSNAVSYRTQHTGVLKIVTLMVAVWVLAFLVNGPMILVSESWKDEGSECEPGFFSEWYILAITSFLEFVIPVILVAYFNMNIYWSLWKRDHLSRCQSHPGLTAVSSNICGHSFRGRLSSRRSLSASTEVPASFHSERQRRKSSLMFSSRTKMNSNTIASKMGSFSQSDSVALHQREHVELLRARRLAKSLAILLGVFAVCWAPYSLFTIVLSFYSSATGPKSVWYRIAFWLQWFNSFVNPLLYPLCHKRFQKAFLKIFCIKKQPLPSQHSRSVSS

[8] = biological target: Histamine H1 receptor (Homo sapiens) (UniProt P35367); experiment: Inhibition of histamine H1 receptor at 10 uM
Sequence of Histamine H1 receptor (Homo sapiens) (P35367 whole entry): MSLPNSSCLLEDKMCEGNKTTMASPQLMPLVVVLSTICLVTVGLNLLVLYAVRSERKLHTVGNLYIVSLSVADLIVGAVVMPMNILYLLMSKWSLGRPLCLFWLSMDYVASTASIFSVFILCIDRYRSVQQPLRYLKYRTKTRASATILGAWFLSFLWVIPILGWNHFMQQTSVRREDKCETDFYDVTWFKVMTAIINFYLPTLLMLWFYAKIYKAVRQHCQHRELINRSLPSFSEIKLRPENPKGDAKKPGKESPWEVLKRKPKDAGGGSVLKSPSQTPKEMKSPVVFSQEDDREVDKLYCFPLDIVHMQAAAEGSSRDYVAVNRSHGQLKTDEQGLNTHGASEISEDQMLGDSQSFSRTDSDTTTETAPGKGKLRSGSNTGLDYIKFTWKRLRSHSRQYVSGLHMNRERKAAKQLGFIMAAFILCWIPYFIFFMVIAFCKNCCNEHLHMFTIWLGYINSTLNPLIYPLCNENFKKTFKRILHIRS

Cytochrome P450 2D6 = Cytochrome P450 2D6 (Homo sapiens, UniProt P10635); experiment: Inhibition of CYP2D6 in human liver microsomes assessed as dextromethorphan O-demethylase activity; assay type: ADME, Microsome
Sequence of Cytochrome P450 2D6 (P10635 whole entry): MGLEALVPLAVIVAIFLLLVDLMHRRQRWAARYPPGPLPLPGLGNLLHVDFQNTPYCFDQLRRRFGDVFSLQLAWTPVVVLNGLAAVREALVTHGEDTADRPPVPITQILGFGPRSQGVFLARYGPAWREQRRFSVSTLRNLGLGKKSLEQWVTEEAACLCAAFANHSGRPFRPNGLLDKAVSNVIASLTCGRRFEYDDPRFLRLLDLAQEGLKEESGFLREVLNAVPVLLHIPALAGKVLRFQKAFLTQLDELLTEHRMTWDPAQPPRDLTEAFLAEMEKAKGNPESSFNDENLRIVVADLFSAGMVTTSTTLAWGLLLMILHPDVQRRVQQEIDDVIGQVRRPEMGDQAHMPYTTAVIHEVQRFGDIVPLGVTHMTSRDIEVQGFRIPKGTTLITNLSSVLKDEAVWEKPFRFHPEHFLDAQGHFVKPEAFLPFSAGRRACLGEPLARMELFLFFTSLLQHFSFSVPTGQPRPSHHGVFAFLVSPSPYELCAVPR

Histamine H3 receptor [9] = biological target: T3, Histamine H3 receptor (Cavia porcellus, UniProt Q9JI35); experiment: Antagonist activity at guinea pig histamine H3 receptor assessed as inhibition of electrically induced twitch contraction; assay type: functional; settings: read-out: pA2 (converted)
T3 sequence (Q9JI35 whole entry): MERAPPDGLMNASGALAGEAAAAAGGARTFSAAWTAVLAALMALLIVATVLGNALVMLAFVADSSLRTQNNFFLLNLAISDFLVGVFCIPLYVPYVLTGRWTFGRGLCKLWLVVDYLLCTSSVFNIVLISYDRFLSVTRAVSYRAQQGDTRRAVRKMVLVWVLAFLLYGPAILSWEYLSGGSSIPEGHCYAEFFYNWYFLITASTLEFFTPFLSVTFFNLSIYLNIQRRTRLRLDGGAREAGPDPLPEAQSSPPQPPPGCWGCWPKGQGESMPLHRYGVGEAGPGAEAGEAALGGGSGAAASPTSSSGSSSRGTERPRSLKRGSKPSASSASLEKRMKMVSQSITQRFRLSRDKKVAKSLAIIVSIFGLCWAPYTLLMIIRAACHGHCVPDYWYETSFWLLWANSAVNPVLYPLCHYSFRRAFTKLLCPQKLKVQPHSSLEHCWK

[10] = biological target: Histamine H3 receptor (Rattus norvegicus) (UniProt Q9QYN8); settings: Cortex
Sequence of Histamine H3 receptor (Rattus norvegicus) (Q9QYN8 whole entry): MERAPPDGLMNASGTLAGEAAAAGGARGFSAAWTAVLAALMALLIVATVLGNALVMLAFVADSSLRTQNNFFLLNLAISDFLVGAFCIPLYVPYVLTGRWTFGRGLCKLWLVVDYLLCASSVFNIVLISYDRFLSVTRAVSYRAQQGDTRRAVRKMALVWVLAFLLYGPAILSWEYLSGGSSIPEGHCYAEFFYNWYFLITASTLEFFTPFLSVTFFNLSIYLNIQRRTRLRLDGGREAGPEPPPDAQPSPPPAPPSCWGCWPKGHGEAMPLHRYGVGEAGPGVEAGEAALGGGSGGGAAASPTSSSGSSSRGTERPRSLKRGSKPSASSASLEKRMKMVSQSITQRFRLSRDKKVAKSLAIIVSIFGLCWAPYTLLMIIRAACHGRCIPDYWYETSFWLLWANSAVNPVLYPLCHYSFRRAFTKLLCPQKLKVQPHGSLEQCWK

Histamine H3 receptor [11] = biological target: T3, Histamine H3 receptor; experiment: Activity at histamine H3 receptor in guinea pig ileum; assay type: tissue-based
Histamine H3 receptor [12] = biological target: Histamine H3 receptor (Rattus norvegicus, UniProt Q9QYN8); experiment: Agonist activity at histamine H3 receptor in rat cortex
Sequence of Histamine H3 receptor (Rattus norvegicus, UniProt Q9QYN8) (Q9QYN8 whole entry): as above

Histamine H4 receptor [13] = biological target: T2, Histamine H4 receptor; experiment: Displacement of [3H]histamine from human histamine H4 receptor expressed in CHO cells at 10 uM; assay type: cell-based

T1 sequence (Q9Y5N1 whole entry): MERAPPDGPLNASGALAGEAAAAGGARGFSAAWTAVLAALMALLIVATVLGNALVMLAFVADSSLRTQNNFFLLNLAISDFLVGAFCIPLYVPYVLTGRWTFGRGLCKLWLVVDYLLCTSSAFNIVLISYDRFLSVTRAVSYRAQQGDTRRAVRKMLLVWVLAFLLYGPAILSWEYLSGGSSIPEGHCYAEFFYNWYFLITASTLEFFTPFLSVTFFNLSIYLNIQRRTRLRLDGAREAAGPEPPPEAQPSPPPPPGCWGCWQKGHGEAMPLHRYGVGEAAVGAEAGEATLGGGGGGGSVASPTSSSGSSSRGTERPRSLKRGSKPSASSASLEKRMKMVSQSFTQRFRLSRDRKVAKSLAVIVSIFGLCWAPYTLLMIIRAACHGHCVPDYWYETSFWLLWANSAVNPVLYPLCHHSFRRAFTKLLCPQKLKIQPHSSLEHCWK
Sequence of Histamine H3 receptor (Cavia porcellus) (Q9JI35 whole entry): as the sequence (Q9JI35 whole entry) above

For `c1ccc(Cc2c[nH]cn2)cc1`, the Ki (Histamine H3 receptor [1]) was 162 nM.
Work on `CC(C)(C)C#Cc1ccc(Cc2c[nH]cn2)cc1` yielded a Ki (Histamine H3 receptor [1]) of 537 nM.
In the case of `CNCCc1cnc[nH]1`, the pD2 [2] is reported as 7.8.
In the case of `CCCCc1c[nH]cn1`, the EC50 (Histamine H3 receptor [3]) is reported as 31.6 nM and the Ki (Histamine H3 receptor [1]) is reported as 25.1 nM.
For `CC1(C)COC(c2cccc(Cc3c[nH]cn3)c2)=N1`, the Ki (Histamine H3 receptor [1]) was 3.98 nM and the EC50 (Histamine H3 receptor [4]) was 15.8 nM.
For `CC1(C)CN=C(c2cccc(Cc3cnc[nH]3)c2)OC1`, the Ki (Histamine H3 receptor [1]) was 2510 nM.
In the case of `c1ccc(-c2cccc(Cc3c[nH]cn3)c2)nc1`, the Ki (Histamine H3 receptor [1]) is reported as 40.7 nM.
Molecule `c1cc(Cc2cnc[nH]2)cc(C2=NC3(CCCC3)CO2)c1` has a Ki (Histamine H3 receptor [1]) of 39.8 nM.
In the case of `CC1CC(C)(C)N=C(c2cccc(Cc3c[nH]cn3)c2)O1` (stereo unspecified), the IC50 [5] is reported as 873 nM, the inhibition [6] is reported as < 40% and the Ki (Histamine H4 receptor [7]) is reported as 8.32 nM. For the same molecule, the inhibition [8] was < 20%, the Ki (Histamine H3 receptor [1]) was 1.26 nM and the IC50 (Cytochrome P450 2D6) was 292 nM. It also gave an EC50 (Histamine H3 receptor [4]) of 2 nM and a Kb (Histamine H3 receptor [9]) of 3.98 nM.
Work on `C[C@@H](N)Cc1c[nH]cn1` yielded a pD2 [10] of 8.4.
For `c1cc(Cc2cnc[nH]2)cc(C2=NC(CC3CCCCC3)CO2)c1` (stereo unspecified), the Ki (Histamine H3 receptor [1]) was 708 nM.
In the case of `c1cc(Cc2c[nH]cn2)cc(C2=NCC3(CCCCC3)O2)c1`, the Ki (Histamine H3 receptor [1]) is reported as 56.2 nM.
With `CC(C)(C)CC(=O)c1cccc(Cc2cnc[nH]2)c1` the Ki (Histamine H4 receptor [7]) was 5.62 nM, the Ki (Histamine H3 receptor [1]) was 32.4 nM and the IC50 (Cytochrome P450 2D6) was 1930 nM. It also gave an EC50 (Histamine H3 receptor [4]) of 79.4 nM and a Kb (Histamine H3 receptor [9]) of 955 nM.
In the case of `c1cc(Cc2cnc[nH]2)cc(-c2ccncc2)c1`, the Ki (Histamine H3 receptor [1]) is reported as 427 nM.
Work on `CNCCc1c[nH]cn1` yielded a Ki (Histamine H3 receptor [11]) of 2.51 nM.
Work on `C(#Cc1cccc(Cc2c[nH]cn2)c1)c1ccccc1` yielded an IC50 [5] of 2760 nM, a Ki (Histamine H3 receptor [1]) of 1.82 nM and an IC50 (Cytochrome P450 2D6) of 488 nM.
Molecule `c1ccc(C[C@@H]2COC(c3cccc(Cc4cnc[nH]4)c3)=N2)cc1` has a Ki (Histamine H3 receptor [1]) of 89.1 nM, an EC50 (Histamine H3 receptor [4]) of 79.4 nM and a Kb (Histamine H3 receptor [9]) of 2240 nM.
With `CC(C)(C)C#Cc1cccc(Cc2c[nH]cn2)c1` the IC50 [5] was 1860 nM, the inhibition [6] was < 40% and the Ki (Histamine H4 receptor [7]) was 5.62 nM. For the same molecule, the inhibition [8] was < 20%, the Ki (Histamine H3 receptor [1]) was 4.47 nM and the IC50 (Cytochrome P450 2D6) was 1780 nM. The EC50 (Histamine H3 receptor [4]) was 7.94 nM and the Kb (Histamine H3 receptor [9]) was 79.4 nM.
In the case of `N#Cc1ccc(Cc2c[nH]cn2)cc1`, the Ki (Histamine H3 receptor [1]) is reported as 813 nM.
Molecule `C[C@H]1CNC[C@@H]1c1c[nH]cn1` has a Ki (Histamine H3 receptor [11]) of 2.51 nM and a pD2 [2] of 7.5.
`c1cc(Cc2cnc[nH]2)ccn1` [IMMETHRIDINE] gave an EC50 (Histamine H3 receptor [3]) of 0.2 nM.
In the case of `c1ccc(COCCCc2c[nH]cn2)cc1` [PROXYFAN], the Ki (Histamine H3 receptor [12]) is reported as 10 nM.
`CC1(C)COC(c2ccc(Cc3c[nH]cn3)cc2)=N1` showed an IC50 [5] of 2520 nM, an inhibition (Histamine H4 receptor [13]) of 17% and a Ki (Histamine H3 receptor [1]) of 2510 nM. For the same molecule, the IC50 (Cytochrome P450 2D6) was 543 nM.
With `N#Cc1cccc(Cc2c[nH]cn2)c1` the Ki (Histamine H3 receptor [1]) was 155 nM.
In the case of `CC(C)(C)CCC#C[C@@H]1C[C@H]1c1c[nH]cn1` (single isomer, unassigned) [CIPRALISANT], the Ki (Histamine H3 receptor [1]) is reported as 3.98 nM.
For `c1nc(CC2CCNCC2)c[nH]1` [IMMEPIP], the Ki (Histamine H3 receptor [1]) was 0.407 nM.
`CCCC#Cc1cccc(Cc2c[nH]cn2)c1` gave an IC50 [5] of 1640 nM, a Ki (Histamine H3 receptor [1]) of 3.16 nM and an IC50 (Cytochrome P450 2D6) of 644 nM.
For `c1ccc(-c2cccc(Cc3cnc[nH]3)c2)cc1`, the Ki (Histamine H3 receptor [1]) was 33.1 nM and the EC50 (Histamine H3 receptor [4]) was 200 nM.
With `CC(C)(C)CC(=O)c1cccc(Cc2c[nH]cn2)c1` the IC50 [5] was 1100 nM, the inhibition [6] was < 40% and the inhibition [8] was < 20%.
`Brc1ccc(Cc2c[nH]cn2)cc1` gave a Ki (Histamine H3 receptor [1]) of 417 nM and an EC50 (Histamine H3 receptor [4]) of 631 nM.
With `Nc1ccc(Cc2c[nH]cn2)cc1` the Ki (Histamine H3 receptor [1]) was 257 nM.
For `C(#Cc1cccc2ccccc12)c1cccc(Cc2c[nH]cn2)c1`, the Ki (Histamine H3 receptor [1]) was 1740 nM.
